Measured values as given in patent US8846698B2, “Pyrrolo[2,3-d]pyrimidine tropomysin-related kinase inhibitors” (Pfizer Limited, priority 2011, dated 2014).
pIC50: −log10 of the molar value.

biological target: TRKA (Homo sapiens (Human), UniProt P04629); experiment: Isolated TRK enzyme assay (HTRF KinEASE-TK), TRKA; assay type: biochemical; settings: read-out: Trka enzyme (IC50)
Sequence (P04629 441-796): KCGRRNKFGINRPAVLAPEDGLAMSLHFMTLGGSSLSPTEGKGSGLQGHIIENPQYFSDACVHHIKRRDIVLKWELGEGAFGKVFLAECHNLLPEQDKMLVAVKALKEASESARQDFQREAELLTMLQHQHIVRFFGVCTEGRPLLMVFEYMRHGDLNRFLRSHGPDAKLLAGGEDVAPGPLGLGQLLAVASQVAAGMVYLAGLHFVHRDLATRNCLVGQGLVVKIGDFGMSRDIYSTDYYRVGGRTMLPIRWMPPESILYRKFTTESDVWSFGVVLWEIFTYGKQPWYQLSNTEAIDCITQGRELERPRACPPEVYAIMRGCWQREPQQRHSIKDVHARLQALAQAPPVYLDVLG

Row | Compound | pIC50
1 | Cc1cc(C(=O)Nc2cncc(C(=O)c3cn(C(C)C)c4ncncc34)c2)ccn1 [Example 422, N-[5-(7-Isopropyl-7H-pyrrolo[2,3-d]pyrimidine-5-carbonyl)-pyridin-3-yl]-2-methyl-isonicotinamide] | 6.35
2 | CC(C)n1cc(C(=O)c2cncc(NC(=O)c3ccc4nccn4c3)c2)c2cncnc21 [Example 423, Imidazo[1,2-a]pyridine-6-carboxylicacid [5-(7-isopropyl-7H-pyrrolo[2,3-d]pyrimidine-5-carbonyl)-pyridin-3-yl]amide] | 5.88
3 | CC(C)n1cc(C(=O)c2cncc(NC(=O)c3nc[nH]n3)c2)c2cncnc21 [Example 424, 1H-1,2,4-Triazole-3-carboxylic acid[5-(7-isopropyl-7H-pyrrolo[2,3-d]pyrimidine-5-carbonyl)-pyridin-3-yl]-amide] | 5.37
4 | COc1ccc(C(=O)Nc2cncc(C(=O)c3cn(C(C)C)c4ncncc34)c2)nc1 [Example 425, 5-Methoxy-pyridine-2-carboxylic acid [5-(7-isopropyl-7H-pyrrolo[2,3-d]pyrimidine-5-carbonyl)-pyridin-3-yl]-amide] | 6.10
5 | CC(C)n1cc(C(=O)c2cncc(NC(=O)c3cnnc4ccccc34)c2)c2cncnc21 [Example 426, Cinnoline-4-carboxylic acid [5-(7-isopropyl-7H-pyrrolo[2,3-d]pyrimidine-5-carbonyl)-pyridin-3-yl]-amide] | 6.64
6 | CC(C)n1cc(C(=O)c2cncc(NC(=O)c3ccn4ncnc4c3)c2)c2cncnc21 [Example 427, [1,2,4]Triazolo[1,5-a]pyridine-7-carboxylic acid [5-(7-isopropyl-7H-pyrrolo[2,3-d]pyrimidine-5-carbonyl)-pyridin-3-yl]amide] | 7.03
7 | CC(C)n1cc(C(=O)c2cncc(NC(=O)c3cc4ncccn4n3)c2)c2cncnc21 [Example 428, Pyrazolo[1,5-a]pyrimidine-2-carboxylic acid [5-(7-isopropyl-7H-pyrrolo[2,3-d]pyrimidine-5-carbonyl)-pyridin-3-yl]amide] | 6.02
8 | CC(C)n1cc(C(=O)c2cncc(NC(=O)c3ccccn3)c2)c2cncnc21 [Example 429, Pyridine-2-carboxylic acid [5-(7-isopropyl-7H-pyrrolo[2,3-d]pyrimidine-5-carbonyl)-pyridin-3-yl]-amide] | 5.56
9 | CC(C)n1cc(C(=O)c2cncc(NC(=O)c3cncc(Cl)c3)c2)c2cncnc21 [Example 430, 5-Chloro-N-[5-(7-isopropyl-7H-pyrrolo[2,3-d]pyrimidine-5-carbonyl)-pyridin-3-yl]-nicotinamide] | 6.53
10 | CC(C)n1cc(C(=O)c2cncc(NC(=O)c3cc4occc4[nH]3)c2)c2cncnc21 [Example 431, 4H-Furo[3,2-b]pyrrole-5-carboxylic acid [5-(7-isopropyl-7H-pyrrolo1[2,3-d]pyrimidine-5-carbonyl)-pyridin-3-yl]-amide] | 6.63
11 | CC(C)n1cc(C(=O)c2cncc(NC(=O)c3ccn4ccnc4c3)c2)c2cncnc21 [Example 432, Imidazo[1,2-a]pyridine-7-carboxylicacid [5-(7-isopropyl-7H-pyrrolo[2,3-d]pyrimidine-5-carbonyl)-pyridin-3-yl]amide] | 5.55
12 | CCn1cc(C(=O)Nc2cncc(C(=O)c3cn(C(C)C)c4ncncc34)c2)cn1 [Example 433, 1-Ethyl-1H-pyrazole-4-carboxylic acid [5-(7-isopropyl-7H-pyrrolo[2,3-d]pyrimidine-5-carbonyl)-pyridin-3-yl]-amide] | 6.61
13 | CC(C)n1cnc(C(=O)Nc2cncc(C(=O)c3cn(C(C)C)c4ncncc34)c2)c1 [Example 434, 1-Isopropyl-1H-imidazole-4-carboxylic acid [5-(7-isopropyl-7H-pyrrolo[2,3-d]pyrimidine-5-carbonyl)-pyridin-3-yl]-amide] | 7.00
14 | COc1nc(C(=O)Nc2cncc(C(=O)c3cn(C(C)C)c4ncncc34)c2)cn2ccnc12 [Example 435, 8-Methoxy-imidazo[1,2-a]pyrazine-6-carboxylic acid [5-(7-isopropyl-7H-pyrrolo[2,3-d]pyrimidine-5-carbonyl)-pyridin-3-yl]amide] | 5.26
15 | CC(C)n1cc(C(=O)c2cncc(NC(=O)c3cnc4[nH]ccc4c3)c2)c2cncnc21 [Example 436, 1H-Pyrrolo[2,3-b]pyridine-5-carboxylic acid [5-(7-isopropyl-7H-pyrrolo[2,3-d]pyrimidine-5-carbonyl)-pyridin-3-yl]amide] | 6.69
16 | CCCc1cc(C(=O)Nc2cncc(C(=O)c3cn(C(C)C)c4ncncc34)c2)n(C)n1 [Example 437, 2-Methyl-5-propyl-2H-pyrazole-3-carboxylic acid [5-(7-isopropyl-7H-pyrrolo[2,3-d]pyrimidine-5-carbonyl)-pyridin-3-yl]amide] | 6.97
17 | CC(C)c1csc(C(=O)Nc2cncc(C(=O)c3cn(C(C)C)c4ncncc34)c2)n1 [Example 438, 4-Isopropyl-thiazole-2-carboxylic acid [5-(7-isopropyl-7H-pyrrolo[2,3-d]pyrimidine-5-carbonyl)-pyridin-3-yl]-amide] | 7.51

Row | Compound | pIC50
18 | Cc1coc2cnc(C(=O)Nc3cncc(C(=O)c4cn(C(C)C)c5ncncc45)c3)cc12 [Example 439, 3-Methyl-furo[2,3-c]pyridine-5-carboxylic acid [5-(7-isopropyl-7H-pyrrolo[2,3-d]pyrimidine-5-carbonyl)-pyridin-3-yl]-amide] | 7.65
19 | Cc1cccc(C(=O)Nc2cncc(C(=O)c3cn(C(C)C)c4ncncc34)c2)n1 [Example 440, 6-Methyl-pyridine-2-carboxylic acid[5-(7-isopropyl-7H-pyrrolo[2,3-d]pyrimidine-5-carbonyl)-pyridin-3-yl]-amide] | 6.17
20 | CC(C)n1cc(C(=O)c2cncc(NC(=O)c3c(C(F)(F)F)nn(C)c3Cl)c2)c2cncnc21 [Example 441, 5-Chloro-1-methyl-3-trifluoromethyl-1H-pyrazole-4-carboxylic acid [5-(7-isopropyl-7H-pyrrolo[2,3-d]pyrimidine-5-carbonyl)-pyridin-3-yl]-amide] | 5.08
21 | COc1ccc2[nH]c(C(=O)Nc3cncc(C(=O)c4cn(C(C)C)c5ncncc45)c3)nc2c1 [Example 442, 5-Methoxy-1H-benzimidazole-2-carboxylic acid [5-(7-isopropyl-7H-pyrrolo[2,3-d]pyrimidine-5-carbonyl)-pyridin-3-yl]amide] | 7.44
22 | Cc1c(Cl)c(C(=O)Nc2cncc(C(=O)c3cn(C(C)C)c4ncncc34)c2)nn1C [Example 443, 4-Chloro-1,5-dimethyl-1H-pyrazole-3-carboxylic acid [5-(7-isopropyl-7H-pyrrolo[2,3-d]pyrimidine-5-carbonyl)-pyridin-3-yl]amide] | 7.32
23 | CC(C)n1cc(C(=O)c2cncc(NC(=O)c3nccc4[nH]ccc34)c2)c2cncnc21 [Example 444, 1H-Pyrrolo[3,2-c]pyridine-4-carboxylic acid [5-(7-isopropyl-7H-pyrrolo[2,3-d]pyrimidine-5-carbonyl)-pyridin-3-yl]amide] | 6.30
24 | CCc1ccnc(C(=O)Nc2cncc(C(=O)c3cn(C(C)C)c4ncncc34)c2)c1 [Example 445, 4-Ethyl-pyridine-2-carboxylic acid [5-(7-isopropyl-7H-pyrrolo[2,3-d]pyrimidine-5-carbonyl)-pyridin-3-yl]-amide] | 8.26
25 | CC(C)n1cc(C(=O)c2cncc(NC(=O)c3cnc4c(c3)OCCO4)c2)c2cncnc21 [Example 446, 2,3-Dihydro-1,4-dioxino[2,3-b]pyridine-7-carboxylic acid [5-(7-isopropyl-7H-pyrrolo[2,3-d]pyrimidine-5-carbonyl)-pyridin-3-yl]-amide] | 6.09
26 | CC(C)n1cc(C(=O)c2cncc(NC(=O)c3ccc4[nH]ccc4n3)c2)c2cncnc21 [Example 447, 1H-Pyrrolo[3,2-b]pyridine-5-carboxylic acid [5-(7-isopropyl-7H-pyrrolo[2,3-d]pyrimidine-5-carbonyl)-pyridin-3-yl]amide] | 6.04
27 | CC(C)n1cc(C(=O)c2cncc(NC(=O)c3ccn4nccc4c3)c2)c2cncnc21 [Example 448, Pyrazolo[1,5-a]pyridine-5-carboxylic acid [5-(7-isopropyl-7H-pyrrolo[2,3-d]pyrimidine-5-carbonyl)-pyridin-3-yl]-amide] | 6.57
28 | COc1ccc2ncc(C(=O)Nc3cncc(C(=O)c4cn(C(C)C)c5ncncc45)c3)cc2c1 [Example 449, 6-Methoxy-quinoline-3-carboxylic acid [5-(7-isopropyl-7H-pyrrolo[2,3-d]pyrimidine-5-carbonyl)-pyridin-3-yl]-amide] | 6.81
29 | Cc1cc(C(=O)Nc2cncc(C(=O)c3cn(C(C)C)c4ncncc34)c2)n(CC(F)(F)F)n1 [Example 450, 5-Methyl-2-(2,2,2-trifluoro-ethyl)-2H-pyrazole-3-carboxylic acid [5-(7-isopropyl-7H-pyrrolo[2,3-d]pyrimidine-5-carbonyl)-pyridin-3-yl]-amide] | 5.50
30 | CC(C)n1cc(C(=O)c2cncc(NC(=O)c3cnccc3C(F)(F)F)c2)c2cncnc21 [Example 451, N-[5-(7-Isopropyl-7H-pyrrolo[2,3-d]pyrimidine-5-carbonyl)-pyridin-3-yl]-4-trifluoromethyl-nicotinamide] | 5.14
31 | CC(C)n1cc(C(=O)c2cncc(NC(=O)c3cnn(CCC#N)c3)c2)c2cncnc21 [Example 452, 1-(2-Cyano-ethyl)-1H-pyrazole-4-carboxylic acid [5-(7-isopropyl-7H-pyrrolo[2,3-d]pyrimidine-5-carbonyl)-pyridin-3-yl]amide] | 6.27
32 | CC(C)n1cc(C(=O)c2cncc(NC(=O)c3cc4cnccc4o3)c2)c2cncnc21 [Example 453, Furo[3,2-c]pyridine-2-carboxylic acid [5-(7-isopropyl-7H-pyrrolo[2,3-d]pyrimidine-5-carbonyl)-pyridin-3-yl]-amide] | 6.20
33 | CC(C)n1cc(C(=O)c2cncc(NC(=O)c3cc4cnccc4[nH]3)c2)c2cncnc21 [Example 454, 1H-Pyrrolo[3,2-c]pyridine-2-carboxylic acid [5-(7-isopropyl-7H-pyrrolo[2,3-d]pyrimidine-5-carbonyl)-pyridin-3-yl]-amide] | 6.20
